Data on five molecules can be found in US11905273B2, “Inhibitors for the B-catenin/B-cell lymphoma 9 (BCL9) protein-protein interaction” (H. LEE MOFFITT CANCER CENTER AND RESEARCH INSTITUTE, INC., priority 2017, dated 2024).

Counter-ions that a name gives are not always drawn. Like-named read-outs stand apart in the source and are kept apart here.

Assay [1] has as its target β-catenin/BCL9 (Homo sapiens (Human), UniProt P35222). The assay can be described thus: AlphaScreen competitive inhibition assay of the β-catenin/BCL9 interaction. The class given is binding. As to conditions: read-out: Ki ± SD β-catenin/BCL9. As to the method: AlphaScreen Assays. All experiments were performed in shite opaque 384-well plates from PerkinElmer (Waltham, MA) with an assay buffer of 25 mM HEPES (pH=7.4), 100 Mm nAcL, 0.1% BSA, and 0.01% Triton X-100. All sample signals were read on a excitation wavelength was set at 680 nm and emission at 570 nm. All of the final reaction volumes were set to 25 μL. In the cross-titration experiments of the wild-type β-catenin//wild-ty-e BCL9 interaction, N-terminally biotinlyated BCL9 (from 0 to 60 nM) and C-terminally His6-tagged μcatenin (2.5, 5, 10, 20, 40, and 80 nM) were titrated in 20 μg/mL) were added. The mixture was then covered black and incubated at 4° C. for 1 h before detection. All addition and incubation was made under subdued lighting conditions due to the photosensitivity of the beads. The data were analyzed by nonlinear least-square analyses using GraphPad Prism 5.0. Each experiment was repeated three times, and the results were expressed as mean ±standard deviation. The competitive binding experiments were performed to determine the apparent Kd values. The rule of the competitive binding experiments for associating the IC50 value with the Kd value are: (1) the expected Kd value should be 10 times higher than the concentration of either tested protein: (2) the concentrations of both tested proteins should be lower than the binding capacities of their respective beads; and (3) the concentration of the target protein (His6-tagged β-catenin) should be 10 times lower than that of the ligand protein (biotinylated BCL9). […] The donor and acceptor beads were added to a final concentration of 10 μg/mL in 25 μL assay buffer. The mixture was covered black and incubated for 1 h at 4° C. before detection. The IC50 values, which sere also the apparent Kd values from the AlphaScreen assay, were determined by nonlinear least-square analyses using GraphPad Prism 5.0. Each experiment was repeated three times, and the results were expressed as mean ±standard deviation.
For the β-catenin/BCL9 competitive inhibition assay, 5 nM of biotinylated BCL9 and 40 nM of His6-tagged β-catenin were incubated in assay buffer at 4° C. for 30 min. Different concentrations of the tested inhibitor were added and incubated in 20 μL assay buffer at 4°C. for another 1 h. All of the above assay plates were covered and gently mixed on an orbital shaker. The donor and acceptor beads were then added to the plates to a final concentration of 10 μg/mL in 25 μL assay buffer. The mixture was incubated for 1 h at 4° C. before detection. The IC50 value was determined by nonlinear least-square analysis of GraphPad Prism 5.0. The inhibition constant (Ki) values were derived from the […] values using a method reported by Nikolovska-Coleska et al.^26. […] The results were expressed as mean ±standard deviation.

For assay [2], the system named is SW480. The assay can be described thus: MTs cancer cell growth inhibition assay, SW480. The class given is cell-based. As to conditions: Wnt/β-catenin-hyperactive, 72 h, mean ± SD (n = 3). Here is the method: (§1) MTs Cell Viability Assay. Colorectal cancer cell lines, SW480 and HCT116, and triple-negative breast cancer cell line MDA-MB-231 were seeded in 96-well plates at 4=10^3 cells/well, maintained overnight at 37°C., and incubated in the presence of 1 and 2 at various concentrations. Cell viability was monitored after 72 h using a freshly prepared mixture of 1 part phenazine methosulfate (PMS, Sigma) solution (0.92 mg/mL) and 19 parts 3-(4,5-dimethylthiazol-2-yl)-5-(3-carboxymethoxyphenyl)-2-(4-sulfophenyl)-2H-tetrazolium (MTs, Promega) solution (2 mg/mL). Cells were incubated in 10 μL of this solution at 37° C. for 3 h, and A490 was measured. […] Experiments were performed in triplicate.

For assay [3], the system named is HCT116. The assay can be described thus: MTs cancer cell growth inhibition assay, HCT116. Format: cell-based. To be noted: Wnt/β-catenin-hyperactive, 72 h, mean ± SD (n = 3). Here is the method:
as §1

In assay [4] the test system is MDA-MB-231. The assay can be described thus: MTs cancer cell growth inhibition assay, MDA-MB-231. The class given is cell-based. To be noted: Wnt/β-catenin-hyperactive, 72 h, mean ± SD (n = 3). Here is the method:
as §1

Assay [5] deals with A549. The assay can be described thus: MTs growth inhibition assay, A549. As to conditions: Wnt-latent, mean ± SD (n = 3). Format: cell-based.
Assay [6] deals with TOPFlash luciferase reporter (three wild-type Tcf binding sites) in β-catenin-activated HEK239. The assay can be described thus: Wnt-responsive TOPFlash luciferase reporter assay, β-catenin-activated HEK293. Format: cell-based. To be noted: 24 h treatment, mean ± SD (n = 3). Here is the method: (§2) Cell transfection and luciferase assay. FuGENE6(E269A, Promega) 96 well plate format was used for the transfection of HEK293 and SW480 cells according to the manufacturer's instruction. HEK293 cells were co-transfected with 45 ng of TOPFlash reporter gene, 135 ng pc DNA3.1-β-catenin, and 20 ng of pCMV-RL normalization reporter gene. SW480 cells were co-transfected with 60 ng of the TOPFlash or FOPFlash reporter gene and 40 ng of pCMV-RL, normalization reporter. Cells were cultured in DMEM and 10% FBS at 37° C. for 24 h, and different concentrations of inhibitors or DMSO was added After 24 h, the luciferase reporter activity was measured using the Dual-Glo system (E2940, Promega). Normalized luciferase activity in response to the treatment with 1 and 2 was compared with that obtained from the cells treated with DMSO. Experiments were performed in triplicate.
(In a reporter assay the amount or activity of a reporter protein is the signal.)

The target in assay [7] is TOPFlash luciferase reporter (three wild-type Tcf binding sites) in SW480. The assay can be described thus: Wnt-responsive TOPFlash luciferase reporter assay, SW480. The class given is cell-based. To be noted: 24 h treatment, mean ± SD (n = 3). Here is the method:
as §2

Where [8] appears, read: AlphaScreen, mean ± standard deviation (n = 3), Ki derived from IC50.

β-catenin/BCL9, sequence (P35222 whole entry): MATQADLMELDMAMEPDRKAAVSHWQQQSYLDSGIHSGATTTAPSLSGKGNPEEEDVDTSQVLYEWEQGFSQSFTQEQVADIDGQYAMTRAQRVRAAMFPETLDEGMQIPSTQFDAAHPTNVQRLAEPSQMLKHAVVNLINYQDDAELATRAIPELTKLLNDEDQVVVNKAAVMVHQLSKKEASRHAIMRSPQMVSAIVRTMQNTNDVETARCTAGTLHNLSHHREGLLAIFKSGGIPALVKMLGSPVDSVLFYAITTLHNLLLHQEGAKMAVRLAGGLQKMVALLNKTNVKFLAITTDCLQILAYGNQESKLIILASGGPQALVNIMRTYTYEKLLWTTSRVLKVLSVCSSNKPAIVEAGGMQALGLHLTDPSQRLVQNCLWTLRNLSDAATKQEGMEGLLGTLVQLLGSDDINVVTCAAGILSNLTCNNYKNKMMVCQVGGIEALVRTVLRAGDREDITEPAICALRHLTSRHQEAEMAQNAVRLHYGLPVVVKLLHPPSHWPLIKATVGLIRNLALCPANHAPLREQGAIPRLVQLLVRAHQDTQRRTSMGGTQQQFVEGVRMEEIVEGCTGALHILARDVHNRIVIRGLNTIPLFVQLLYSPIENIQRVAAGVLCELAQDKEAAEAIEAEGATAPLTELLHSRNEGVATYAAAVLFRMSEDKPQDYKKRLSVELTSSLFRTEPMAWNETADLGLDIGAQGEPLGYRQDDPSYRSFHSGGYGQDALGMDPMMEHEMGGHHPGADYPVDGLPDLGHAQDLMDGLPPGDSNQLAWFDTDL

Regarding `O=C(Nc1ccc(O[C@H]2CCNC2)c(-c2ccc(F)cc2)c1)c1ccc(O[C@H]2CCNC2)c(C2CCC(C(F)(F)F)CC2)c1` (stereo partly drawn) [Compound 5, N-(-4′-fluoro-6-(((S)-pyrrolidin-3-yl)oxy)-[1,1′-biphenyl]-3-yl)-4-(((S)-pyrrolidin-3-yl)oxy)-3-(4-(trifluoromethyl)cyclohexyl) benzamide dilydrocholoride], in assay [1] (setting [8]), the Ki stood at 4.2 ± 2.3 µM. Further, the half-inhibitory concentration (IC50) turned out to be 3.6 ± 2.7 µM in assay [2]; 5.6 ± 2.7 µM in assay [3]; 2.3 ± 1 µM in assay [4]; 4.8 ± 2.4 µM in assay [5]; 10 ± 3.2 µM in assay [6]; 10 ± 3.3 µM in assay [7].
Turning to `O=C(Nc1ccc(O[C@H]2CCNC2)c(-c2ccc(F)cc2)c1)c1ccc(O[C@H]2CCNC2)c(C2=CCCCC2)c1` [Compound 4, N-(4^+-fluoro-6-(((S)-pyrrolidin-3-yl)oxy)-[1,1′-biphenyl]-6-(((S)-pyrrolidin-3-yl)oxy)-2′,3′,4′,5′-tetrahydro-[1.1′-biphenyl]-3-carboxamidedihydrochloride], in assay [1] (setting [8]), the Ki was found to be 7.1 ± 2.5 µM. For the same molecule, the IC50 in assay [2] was found to be 3.7 ± 2 µM; in assay [3] it was 6.9 ± 3.2 µM; in assay [4] it was 3.4 ± 1.6 µM; in assay [5], 8.9 ± 2.7 µM; in assay [7], 8.7 ± 2.3 µM.
Consider `O=C(Nc1ccc(O[C@H]2CCNC2)c(-c2ccc(F)cc2)c1)c1ccc(O[C@H]2CCNC2)c(C2CCCCC2)c1` [Compound 3, 3-cyclohexyl-N-(4′-fluoro-6-(((S)-pyrrolidin-3-yl)oxy)-[1,1′-biphenyl]-3-4-(((S)-pyrrolidin-3-yl)oxy)benzamidedihydrochloride], for which the Ki in assay [1] (setting [8]) was found to be 14 ± 1.6 µM. Moreover, the IC50 in assay [2] worked out at 6.6 ± 2.7 µM; in assay [3] it was 3.8 ± 1.5 µM; in assay [5] it was 3.8 ± 1.5 µM.
Consider `Fc1ccc(-c2cc(-c3ccc4cc(O[C@H]5CCNC5)c(-c5ccc(F)c(F)c5)cc4n3)ccc2O[C@H]2CCNC2)cc1` [Compound 1, 7-(3,4-difluorophenyl)-2-(4′-fluoro-6-((S)-pyrrolidin-3-yloxy)-[1,1′-biphenyl]-3-yl)-6-((S)-pyrrolidin-3-yloxy)quinoline dihydrochloride], for which, in assay [1], the Ki was found to be 8 ± 1.8 µM. For the same molecule, the IC50 in assay [2] (Homo sapiens, SW480) was determined as 3.6 ± 1.9 µM; in assay [3] (Homo sapiens, HCT-116), 9.6 ± 2.5 µM; in assay [4] (Homo sapiens, MDA-MB-231), 15 ± 6.1 µM; in assay [5] (Homo sapiens, A549), 23 ± 4.4 µM; in assay [6] (HEK239), 26 ± 3.1 µM; in assay [7] (Homo sapiens, SW480) it was 12 ± 1.5 µM.
As to `Fc1ccc(-c2cc(-c3cnc4cc(O[C@H]5CCNC5)c(-c5ccc(F)c(F)c5)cc4c3)ccc2O[C@H]2CCNC2)cc1` [Compound 2, 6-(3.4-difluorophenyl)-3-(4′-fluoro-6-((S)-pyrrolidin-3-yloxy)-[1,1′-biphenyl]-3-yl)-7-((S)-pyrrolidin-3-yloxy)quinoline dihydrochloride], the IC50 in assay [2] (Homo sapiens, SW480) was found to be 1.7 ± 0.9 µM; in assay [3] (Homo sapiens, HCT-116), 2.2 ± 1 µM; in assay [4] (Homo sapiens, MDA-MB-231), 3.1 ± 1.2 µM; in assay [5] (Homo sapiens, A549), 7.5 ± 2.9 µM; in assay [6] (HEK239) it was 14 ± 1.5 µM; in assay [7] (Homo sapiens, SW480) it was 7.9 ± 1.4 µM.

For orientation: IC50 means the concentration at which inhibition is half-maximal. High values mean weaker potency, low ones greater potency.
